Laboratory results as given in patent US11337944B2, “Method of treating colorectal cancers using a PKC inhibitor” (UNIVERSITY OF SOUTH FLORIDA, priority 2016, dated 2022).
Entries after “also recorded” stand apart in the source; their conditions may differ. Where two headings read alike, the source gives them in different places. Values belong to the compound of their own block, whether it stands above or below them.

What was measured:
[1] = tested on: HT-29 colon cancer cell line; test: HT-29 colon cancer cell proliferation, viable cell count (Tryphan blue exclusion, scepter); assay type: cell-based; conditions: for HT-29 cell proliferation at 0.25 μM / HT-29 cell proliferation at 1.5 μM: after three days of treatment; for effect on HT-29 cell proliferation with concentration: 24-72 hours, several concentrations; for IC50: HT-29, three days of treatment, read-out: decrease of growth of HT-29 cells by 50 percent (IC50)
Procedure: (§1) The colon cancerous cell line, HT-29 and normal colon epithelial cells, CCD18CO were obtained from American Type Tissue Culture Collection. The HT-29 cells and CCD18CO cells were subculture and maintained in T75 flasks containing McCoy's media and Eagle's Minimum Essential Media respectively, both of the flasks were supplemented with 10% FBS (Fetal Bovine Serum) and 1% antibiotics (Penicillin 10 U/ml and streptomycin 10 mg/ml). Cells were incubated at 37° C. and 5% CO2. After few days of incubation following subculture, cells were used at 70-80% confluency for the experiment.
Cells (3.0×10^4/well) were grown as monolayer on 6 wells plate. […] Cells are then washed (2 ml 2× DPBS buffer), trypsinized, resuspended in McCoy's 5A media and counted with hemocytometer, Scepter & MTT assay.
After starting treatment, viable cells were counted at each 24 hours interval using Tryphan blue exclusion assay and scepter. The data represents n=4 independent experiments.
HT-29 cells were treated with five different concentrations of DNDA for 24-72 hours. After starting treatment, viable cells were counted at each 24 hours interval using Tryphan blue exclusion assay and scepter. The data represents n=4 independent experiments.
HT-29 cells were treated with five different concentrations of ICA-1 for 24-72 hours. After starting treatment, viable cells were counted at each 24 hours interval using Tryphan blue exclusion assay and scepter. The data represents n=4 independent experiments.
HT-29 cells were treated with four different concentrations of ζ-Stat for 24-72 hours. After starting treatment, viable cells were counted at each 24 hours interval using Tryphan blue exclusion assay and scepter. The data represents n=4 independent experiments.

[2] = target: T1, PKC-ζ (Homo sapiens, UniProt Q05513); conditions: cited from earlier work
T1 construct: harvested and whole cell extracts were prepared; endogenous in cells; host or cells: HT-29
T1 sequence (Q05513 1-592): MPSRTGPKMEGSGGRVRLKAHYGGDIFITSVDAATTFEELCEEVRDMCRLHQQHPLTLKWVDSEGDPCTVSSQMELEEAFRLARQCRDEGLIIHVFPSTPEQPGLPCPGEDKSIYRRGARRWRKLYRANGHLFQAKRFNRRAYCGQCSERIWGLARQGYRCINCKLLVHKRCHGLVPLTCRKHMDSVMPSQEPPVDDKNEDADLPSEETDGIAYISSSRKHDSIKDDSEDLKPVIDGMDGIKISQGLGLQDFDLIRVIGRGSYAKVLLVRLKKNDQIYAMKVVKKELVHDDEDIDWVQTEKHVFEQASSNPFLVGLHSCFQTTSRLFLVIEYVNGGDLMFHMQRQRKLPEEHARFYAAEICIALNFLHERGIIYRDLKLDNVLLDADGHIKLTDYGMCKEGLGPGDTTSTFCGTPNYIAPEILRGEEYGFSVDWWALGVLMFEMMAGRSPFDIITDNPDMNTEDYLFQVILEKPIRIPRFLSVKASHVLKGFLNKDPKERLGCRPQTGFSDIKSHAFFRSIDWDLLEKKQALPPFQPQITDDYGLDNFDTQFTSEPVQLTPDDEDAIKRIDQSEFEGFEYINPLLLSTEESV

[3] = target: T2, PKC-ι (Homo sapiens, UniProt P41743); conditions: cited from earlier work
T2 construct: harvested and whole cell extracts were prepared; endogenous in cells; host or cells: HT-29
T2 sequence (P41743 1-596): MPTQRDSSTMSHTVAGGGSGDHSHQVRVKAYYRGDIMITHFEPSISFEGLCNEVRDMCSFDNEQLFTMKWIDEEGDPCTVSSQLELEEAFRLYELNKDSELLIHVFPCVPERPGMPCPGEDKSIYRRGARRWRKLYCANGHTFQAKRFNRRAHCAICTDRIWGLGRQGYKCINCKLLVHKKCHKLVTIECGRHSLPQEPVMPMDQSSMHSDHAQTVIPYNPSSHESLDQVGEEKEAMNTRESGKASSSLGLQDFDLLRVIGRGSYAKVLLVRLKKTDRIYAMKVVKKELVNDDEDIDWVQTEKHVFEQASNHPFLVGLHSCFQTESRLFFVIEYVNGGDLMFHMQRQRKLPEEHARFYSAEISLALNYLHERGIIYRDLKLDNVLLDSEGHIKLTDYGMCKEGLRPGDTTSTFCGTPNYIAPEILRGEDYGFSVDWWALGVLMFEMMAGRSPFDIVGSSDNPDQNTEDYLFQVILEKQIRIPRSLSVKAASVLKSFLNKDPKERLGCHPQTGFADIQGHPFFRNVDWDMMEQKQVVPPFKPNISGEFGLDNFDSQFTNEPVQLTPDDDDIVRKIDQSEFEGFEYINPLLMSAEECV

[4] = tested on: CCD18CO normal colorectal cells; test: Western blot of survival and apoptotic proteins in CCD18CO normal cells; assay type: cell-based; conditions: 7 μM, 72 hours, immunoblot
Procedure: (§2) CCD18CO cells were treated with 7 μM ICA-I or 7 μM ζ-Stat, respectively, for 72 hours, harvested and whole cell lysates were prepared. Equal amounts (40 μg) of protein were loaded on SDS-PAGE followed by immunoblotting for PKC-ι, PKC-ζ, Caspase-3, BCL-XL, and β-actin to see the effect of specific aPKC inhibition on survival and apoptotic proteins. Data represents n=3 independent experiments.

[5] = target: T1, PKC-ζ; test: Western blot of PKC-ζ expression and phosphorylation in HT-29 cells; assay type: cell-based; conditions: HT-29, 72 hours, increasing concentrations, immunoblot
Procedure: (§3) Cells were cultured (9.0×10^4) in 100 mm cell culture flasks. […] Equal volume of sterile water (vehicle control) as the volume of drug was added in the control also. Treatment was continued for three consecutive days. Total cell-lysates were prepared and subjected to western blot analysis for aPKC analysis.
(§4) Because PKC-ι and PKC-ζ are homologous (84%) in terms of amino acids sequence of their catalytic domain [7], the specificity of the effect of ζ-Stat on PKC-ζ was tested by performing western blot analysis. HT-29 colorectal cancerous cells were treated with seven different concentrations of ζ-Stat for 72 hours, harvested and whole cell extracts were prepared. Equal amounts (40 μg) of protein were loaded on SDS-PAGE followed by immunoblotting for pPKC-ι(T555), PKC-ι, pPKC-ζ(T410), PKC-ζ, pAKT(S473) and β-actin to examine the effect of ζ-Stat on those protein levels. Data represents n=3 independent observations.

[6] = target: T2, PKC-ι; test: Western blot of PKC-ι expression and phosphorylation in HT-29 cells; assay type: cell-based; conditions: HT-29, 72 hours, increasing concentrations, immunoblot
Procedure: as §3, §4

[7] = tested on: HT-29 colorectal cancer cells; test: Western blot of survival and apoptotic proteins (Caspase-3, BCL-XL, Survivin) in HT-29 cells; assay type: cell-based; conditions: HT-29, 7 μM, 72 hours, immunoblot
Procedure: as §2, with “HT-29 colorectal cancer” for “CCD18CO”, “ζ-Stat” for “ζ-Stat, respectively,”, “for” for “for PKC-ι, PKC-ζ,”, “BCL-XL, Survivin” for “BCL-XL,”, “determine” for “see”, “effects” for “effect”

[8] = tested on: CCD18CO normal colon epithelial cell line; test: MTT assay on CCD18CO normal colon epithelial cells; assay type: cell-based
Procedure: as §1
To establish the efficacy of ζ-Stat as a specific inhibitor of PKC-ζ, the effect of ζ-Stat on CCD18CO normal colon epithelial cell line was tested. CCD18CO normal epithelial cell line cells were treated with four different concentrations of ζ-Stat for three consecutive days followed by incubation with MTT reagent and taking absorbance reading at each half an hour interval for three hours at 577 nm using microplate reader. The data represents n=3 independent experiments.
The percentage of inhibition of CCD18C0 cell growth was measured after three hours of MTT incubation. […] The data represents n=3 independent replicates (FIG. 19).

IC50 [1]: ~780 nM
Compound: Nc1c(S(=O)(=O)O)cc2cc(S(=O)(=O)O)ccc2c1N [DNDA, 3,4, diamino-2,7-naphthalene disulfonic acid]
HT-29 cell proliferation at 0.25 μM [1]: slight decrease in proliferation
HT-29 cell proliferation at 1.5 μM [1]: dramatic decrease in proliferation
effect on HT-29 cell proliferation with concentration [1]: decrease colon cancer cell proliferation in a dose-dependent manner
inhibition of PKC-ζ [2]: about 80%
inhibition of PKC-ι [3]: about 20%

IC50 [1]: ~950 nM
Compound: NC(=O)c1ncn(C2CC(COP(=O)(O)O)C(O)C2O)c1N (stereo not drawn) [ICA-1, [4-(5-amino-4-carbamoylimidazol-1-yl)-2,3-dihydroxycyclopentyl] methyl dihydrogen phosphate]
HT-29 cell proliferation at 0.25 μM [1]: slight increase in cell proliferation
HT-29 cell proliferation at 1.5 μM [1]: dramatic decrease in cell proliferation
effect on HT-29 cell proliferation with concentration [1]: decrease colon cancer cell proliferation in a dose-dependent manner
toxicity to normal epithelial cells CCD18CO [4]: not toxic

IC50 ([1]; Homo sapiens, 72 h): ~1400 nM
Compound: O=S(=O)(O)c1cc(O)c2c(S(=O)(=O)O)cc(S(=O)(=O)O)cc2c1 [ζ-Stat, 8-hydroxy-1,3,6-naphthalenetrisulfonic acid]
HT-29 cell proliferation at 1.5 μM [1]: dramatic decrease in cell proliferation
effect on HT-29 cell proliferation with concentration [1]: inhibits colon cancer cell proliferation in a dose-dependent manner
inhibition of HT-29 cells ([1]; treatment over three days): about 60%
level / phosphorylation of PKC-ζ [5]: decrease the levels of total and phosphorylated PKC-ζ; also recorded: selective decrease in the phosphorylation of PKC-ζ
effect on PKC-ι [6]: without affecting PKC-ι; also recorded: specifically inhibits PKC-ζ not PKC-ι
level of pro-survival proteins [7]: decreases the level of pro-survival proteins
effect on normal colon epithelial cells CCD18CO (cell number / toxicity) ([8]; 1.0-3.0 μM, three consecutive days, MTT): not toxic; also recorded: did not change
percent inhibition of CCD18CO cell growth ([8]; after three hours of MTT incubation): less than 10%
toxicity to normal epithelial cells CCD18CO [4]: not toxic
